From patent US5053402A, “Certain glyceryl phosphate-cyclic ammonium compounds useful for treating hypertension” (Nippon Chemiphar Co., Ltd., priority 1986, dated 1991)

Legend:
[1] = test system: platelet; assay: Blood Platelet Agglutination Action; type: cell-based, male Japanese white rabbit; details: Oryctolagus cuniculus; for EC50: from agglutination curve
Protocol: A male Japanese white rabbit was anesthetized by pentobarbital, and a blood was collected in aqueous 3.13% sodium citrate solution at its carotid. The blood containing 1/10 volume ratio of the sodium citrate solution was treated in a conventional manner to give a platelet rich plasma (PRP) and a platelet poor plasma (PPP) for performing the following experiment.
PRP was diluted with PPP to give a sample containing platelets at 300,000/mm^3.
Agglutination of platelet was determined by means of Platelet Aggregation Tracer PAT-4A(available from Niko Bioscience Co., Ltd., Japan). 10 μl of a test solution was added to 190 μl of PRP to give a final solution of 2×10^-10 to 2×10^-4 M, and an agglutination curve is recorded. For the preparation of the test solution, a saline solution containing 0.25% bovine serum albumin.
Agglutination of Platelet

[2] = test system: blood pressure; assay: Blood Pressure Reducing Action: Intravenous Injection; type: in vivo, Male Wister rats; details: anesthetized rat; for ED (50 mmHg reduction): iv, from dose-response curve, read-out: MABP50 (dose required for reducing average blood pressure by 50 mmHg); for Reduction of Blood Pressure: i.v.
Protocol: Male Wister rats (mean body weight: 420 g) were anesthetized by intra-peritoneal injection of 50 mg/kg of pentobarbital sodium and were fixed on their backs, and their blood pressures were measured at left femoral artery. Subsequently, a compound to be tested was dissolved in a saline solution containing 0.25% bovine serum albumin and injected into the rat through the right femoral vein.
A dose-response curve was prepared from the above values to determine a dose required for reducing average blood pressure by 50 mmHg (MABP50). MABP50 for the above compound was 21 ng/kg.

[3] = test system: blood pressure; assay: Blood Pressure Decreasing Action: Oral Administration; type: in vivo, Spontaneously hypertensive male rats; details: 10 mg/kg
Protocol: Spontaneously hypertensive male rates (average body weight: 359 g) were etherized and fixed on their backs. Blood pressure was measured for each rat through cannulation at its left femoral artery. A compound to be tested was dissolved in a distilled water and the resulting aqueous solution was administered orally.

## CCCCCCCCCCCCCCCCOCC(COP(=O)([O-])OC1CCC[N+](C)(C)C1)OC(C)=O (stereo not drawn) [Example 1, 2-Acetyloxy-3-hexadecyloxypropyl 1,1-dimethylpiperidinio-3-yl phosphate]
[1]; table
  EC50: 0.6 nM
[2]
  ED (50 mmHg reduction): 0.013 µg/kg

## CCCCCCCCCCCCCCCCOCC(COP(=O)([O-])OC1CC[N+](C)(C)CC1)OC(C)=O (stereo not drawn) [Example 2, 2-Acetyloxy-3-hexadecyloxypropyl 1,1-dimethylpiperidinio-4-yl phosphate]
[1]; table
  EC50: 8 nM
[2]
  ED (50 mmHg reduction): 0.058 µg/kg

## CCCCCCCCCCCCCCCCOC(C)C(COP(=O)([O-])OC1CC[N+](C)(C)C1)OC(C)=O (stereo not drawn) [Example 3, 2-Acetyloxy-3-hexadecyloxybutyl 1,1-dimethylpyrrolidinio-3-yl phosphate]
[1]; table
  EC50: 400 nM
[2]
  ED (50 mmHg reduction): 8.5 µg/kg
[3]; after 30 min
  Reduction of Blood Pressure: -49.7 mmHg
[3]; after 1 hr
  Reduction of Blood Pressure: -60.7 mmHg
[3]; after 2 hrs
  Reduction of Blood Pressure: -74.3 mmHg
[3]; after 3 hrs
  Reduction of Blood Pressure: -82.0 mmHg
[3]; after 4 hrs
  Reduction of Blood Pressure: -84.7 mmHg
[3]; after 5 hrs
  Reduction of Blood Pressure: -83.7 mmHg
[3]; after 6 hrs
  Reduction of Blood Pressure: -82.3 mmHg

## CCCCCCCCCCCCCCCCOC(C)C(COP(=O)([O-])OC1CCC[N+](C)(C)C1)OC(C)=O (stereo not drawn) [Example 4, 2-Acetyloxy-3-hexadecyloxybutyl 1,1-dimethylpiperidinio-3-yl phosphate]
[1]; table
  EC50: 22 nM
[2]
  ED (50 mmHg reduction): 0.34 µg/kg
[3]; after 30 min
  Reduction of Blood Pressure: -66.0 mmHg
[3]; after 1 hr
  Reduction of Blood Pressure: -68.0 mmHg
[3]; after 2 hrs
  Reduction of Blood Pressure: -73.0 mmHg
[3]; after 3 hrs
  Reduction of Blood Pressure: -72.3 mmHg
[3]; after 4 hrs
  Reduction of Blood Pressure: -66.7 mmHg
[3]; after 5 hrs
  Reduction of Blood Pressure: -63.0 mmHg
[3]; after 6 hrs
  Reduction of Blood Pressure: -66.7 mmHg

## CCCCCCCCCCCCCCCCOC(C)C(COP(=O)([O-])OC1CC[N+](C)(C)CC1)OC(C)=O (stereo not drawn) [Example 5, 2-Acetyloxy-3-hexadecyloxybutyl 1,1-dimethylpiperidinio-4-yl phosphate]
[1]; table
  EC50: 630 nM
[2]
  ED (50 mmHg reduction): 8.6 µg/kg
[3]; after 30 min
  Reduction of Blood Pressure: +5.0 mmHg
[3]; after 1 hr
  Reduction of Blood Pressure: 0 mmHg
[3]; after 2 hrs
  Reduction of Blood Pressure: -14.5 mmHg
[3]; after 3 hrs
  Reduction of Blood Pressure: -19.0 mmHg
[3]; after 4 hrs
  Reduction of Blood Pressure: -22.5 mmHg
[3]; after 5 hrs
  Reduction of Blood Pressure: -26.0 mmHg
[3]; after 6 hrs
  Reduction of Blood Pressure: -28.0 mmHg

## CCCCCCCCCCCCCCCCOCC(OC(C)=O)C(OP(=O)([O-])OC1CC[N+](C)(C)C1)C(C)C (stereo not drawn) [Example 6, 2-Acetyloxy-3-hexadecyloxy-1-(1-methylethyl)-propyl 1,1-dimethylpyrrolidinio-3-yl phosphate]
[1]; table
  EC50: 5000 nM
[2]
  ED (50 mmHg reduction): 48 µg/kg

## CCCCCCCCCCCCCCCCOCC(COP(=O)([O-])OC1CC[N+](C)(C)C1)OC(C)=O (stereo not drawn) [Example 8, 2-Acetyloxy-3-hexadecyloxypropyl 1,1-dimethylpyrrolidinio-3-yl phosphate]
[1]; 2 × 10^-6 M, PRP = 0%, PPP = 100%
  activation at 2 µM: 86%
[1]; 2 × 10^-7 M, PRP = 0%, PPP = 100%
  activation at 0.2 µM: 81%
[1]; 2 × 10^-8 M, PRP = 0%, PPP = 100%
  activation at 0.02 µM: 67%
[1]; 2 × 10^-9 M, PRP = 0%, PPP = 100%
  activation at 0.002 µM: 18%
[1]; 2 × 10^-10 M, PRP = 0%, PPP = 100%
  activation at 0.0002 µM: 0%
[1]
  EC50: 18 nM
[2]; 1 ng/kg
  Reduction of Blood Pressure: -4.5 ± 1.5 mmHg
[2]; 5 ng/kg
  Reduction of Blood Pressure: -21.5 ± 8.0 mmHg
[2]; 10 ng/kg
  Reduction of Blood Pressure: -47.5 ± 0.5 mmHg
[2]; 50 ng/kg
  Reduction of Blood Pressure: -52.6 ± 4.6 mmHg
[2]; 100 ng/kg
  Reduction of Blood Pressure: -67.0 ± 3.1 mmHg
[2]
  ED (50 mmHg reduction): 0.021 µg/kg
